From US9055743B2, “Alpha, beta-unsaturated imines” (BAYER INTELLECTUAL PROPERTY GMBH, priority 2010, dated 2015) come the findings set out here.

Usually mortality stands for the share of the test organisms that died.

Each structure is given as a SMILES string.

What all share (assay type): in vivo
Assay [1] has as its system caterpillars of the army worm (Spodoptera frugiperda). Description: Spodoptera frugiperda test (SPODFR spray treatment). The following applies: 500 g/ha, spray, after 7 days; for pest or weed control at 500 g/ha: Spodoptera frugiperda, 168 h, read-out: activity (caterpillars killed). An outline of the steps:
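Maize leaf discs sprayed with compound formulated in acetone/dimethylformamide plus alkylaryl polyglycol ether emulsifier and diluted in water, then infested with Spodoptera frugiperda caterpillars once dry. Mortality scored after 7 days as % activity, where 100% means all caterpillars killed.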

For another assay, the system named is Culex quinquefasciatus. The assay can be described thus: whole plant or invertebrate. As to conditions: for knock-down activity: 100 mg/m^2, two hours after contact, exposition 30 minutes; for mortality at 100 mg/m2: Culex quinquefasciatus, read-out: activity (mortality in %). How it is done:
Culex Test (CULXFA Surface Treatment) Solvent: Acetone
To produce a suitable preparation of active compound, the active compound is dissolved in acetone (2 mg/ml). The active compound preparation is pipetted onto a glazed tile and, after drying, adult mosquitoes of the species Culex quinquefasciatus are placed onto the treated tile. The exposition time is 30 minutes.
Two hours after contact to the treated surface, the knock-down proportion of the test animals in % is determined.
24 hours after contact to the treated surface, the mortality in % is determined. Here, 100% means that all mosquitoes have been killed; 0% means that none of the mosquitoes has been killed.

For assay [2], the system named is Anopheles gambiae (homocygus kdr). The assay can be described thus: Anopheles test (ANPHGB surface treatment). As to conditions: for knock-down activity: 100 mg/m^2, two hours after contact, exposition 30 minutes; for mortality at 100 mg/m2: Anopheles gambiae, read-out: activity (mortality in %); for Kill rate in % after 24 hours: active compound concentration 1.6 g/ha. An outline of the steps: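 Compound dissolved in acetone at 2 mg/ml, pipetted onto glazed tile and dried; adult kdr-homozygous mosquitoes exposed on the tile for 30 min. Knock-down (%) read 2 h and mortality (%) 24 h after contact.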

A further assay deals with Ctenocephalides felis. The assay can be described thus: Ctenocephalides felis oral test (CTECFE). The following applies: 100 ppm in citrated cattle blood, after two days. The method in brief: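 About 20 unfed adult C. felis fed through a parafilm membrane on citrated cattle blood containing compound (DMSO stock diluted to the desired concentration). Kill (%) determined after two days; 100% = all fleas dead, 0% = none dead.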

For another assay, the system named is Aedes aegypti. Description: Aedes test (AEDSAE surface treatment). As to conditions: for knock-down activity: 100 mg/m^2, two hours after contact, exposition 30 minutes; for mortality at 100 mg/m2: Aedes aegypti, read-out: activity (mortality in %); for Kill rate in % after 24 h: active compound concentration 1.6 g/ha. The method in brief: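 Compound dissolved in acetone (2 mg/ml) and dried onto a glazed tile; adult mosquitoes exposed for 30 minutes. Knock-down % scored at 2 hours and mortality % at 24 hours after contact (100% = all killed).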

For assay [3], the system named is cat fleas (Ctenocephalides felis, fully sensitive laboratory strain). The assay can be described thus: Contact test against fleas in-vitro (CTECFE contact). As to conditions: for activity against cat fleas: 500 g/ha, after 48 h. An outline of the steps:
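Test tubes coated from acetone solutions by rotation, top concentration 500 g/ha (500 μg/dm^2) on tube surface, serial 1:5 dilutions. 10-20 CO2-anesthetized adult fleas held at room temperature for 24 and 48 h. Activity scored versus acetone control: knock-down or death of all fleas = 100%.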

For a further assay, the system named is Lucilia cuprina larvae. Description: Lucilia cuprina test (LUCICU). The following applies: 100 ppm, after 2 days. The method in brief:
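Horsemeat treated with compound (DMSO concentrate diluted in water) was populated with about 20 L. cuprina larvae. Percent kill was scored after 2 days, from 100% (all larvae dead) to 0% (none dead).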

The subject of assay [4] is greenhouse red spider mite (Tetranychus urticae). The assay can be described thus: Tetranychus test; OP-resistant (TETRUR spray treatment). The following applies: 500 g/ha, spray, after 6 days; for pest or weed control at 500 g/ha: Tetranychus urticae, 144 h, read-out: activity (spider mites killed). An outline of the steps: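 Bean leaf discs infested with all stages of OP-resistant Tetranychus urticae were sprayed with compound in acetone/DMF with alkylaryl polyglycol ether emulsifier, diluted in emulsifier-water. Mortality was scored after 6 days: 100% means all mites killed, 0% none.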

The subject of assay [5] is larvae of the mustard beetle (Phaedon cochleariae). The assay can be described thus: Phaedon test (PHAECO spray treatment). As to conditions: 500 g/ha, spray, after 7 days; for pest or weed control at 500 g/ha: Phaedon cochleariae, 168 h, read-out: activity (beetle larvae killed). The method in brief: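 Chinese cabbage leaf discs sprayed with compound formulated in acetone/dimethylformamide with alkylaryl polyglycol ether emulsifier, diluted in emulsifier-containing water to the desired concentration. After drying, discs were populated with mustard beetle larvae.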

Regarding `Cc1ccc(N=C2C(=CSc3ccc(F)cc3)CCc3cc(F)ccc32)cc1` [Example 1-16], the pest or weed control at 500 g/ha in assay [1], in assay [4] and in assay [5] was 100% throughout. In addition, the figures for the knock-down activity (in the assay on Culex quinquefasciatus; in assay [2]; with Aedes aegypti) were 95%, 100% and 100%, respectively. In addition, the mortality at 100 mg/m2 (in the assay with Culex quinquefasciatus; in [2]; in the assay with Aedes aegypti) was 100% each time. Moreover, in [2], the “Kill rate in % after 24 hours” value turned out to be 80%. The “activity (kill in %)” value in the assay on Ctenocephalides felis and in the assay on Lucilia cuprina larvae was 100% each time. Besides, the “Kill rate in % after 24 h” value with Aedes aegypti is listed as 90%. Besides, in assay [3], the “activity against cat fleas” value was found to be 100%.

In the case of `Cc1ccc(N=C2C(=CSc3ccc(F)cc3)CSc3ccccc32)cc1` [Example 1-35], the pest or weed control at 500 g/ha in assay [1], in [4] and in assay [5] was 100% in each case. Besides, the mortality at 100 mg/m2 (in the assay with Culex quinquefasciatus; in assay [2]; in the assay with Aedes aegypti) was 100% each time. Moreover, the knock-down activity is given as 100% in [2] and 90% with Aedes aegypti. In addition, the “Kill rate in % after 24 hours” value in assay [2] was 100%. Besides, the “activity (kill in %)” value with Ctenocephalides felis and in the assay with Lucilia cuprina larvae was 100% in each case. The “Kill rate in % after 24 h” value with Aedes aegypti worked out at 100%. The “activity against cat fleas” value in assay [3] was 100%.

For `Cc1ccc(N=C2C(=CSc3ccc(F)cc3)C(C)c3ccccc32)cc1` (stereo not drawn) [Example 1-57], the pest or weed control at 500 g/ha in assay [1], in assay [4] and in assay [5] was 100% each time. The mortality at 100 mg/m2 (in the assay with Culex quinquefasciatus; in assay [2]; with Aedes aegypti) was 100% throughout. Besides, the figures for the knock-down activity (in [2]; in the assay with Aedes aegypti) were 80% and 100%, respectively. For the same compound, in assay [2], the “Kill rate in % after 24 hours” value is 100%. For the same compound, the “activity (kill in %)” value in the assay with Ctenocephalides felis and with Lucilia cuprina larvae was 100% throughout. For the same compound, the “activity against cat fleas” value in assay [3] is on record as 100%.

With `Cc1ccc(N=C2C(=CSc3ccc(F)cc3)CCc3ccccc32)cc1` [Example 1-9], the pest or weed control at 500 g/ha in [1], in assay [4] and in [5] was 100% throughout. The knock-down activity (in the assay with Culex quinquefasciatus; in [2]; with Aedes aegypti) was 100% each time. Besides, the mortality at 100 mg/m2 (in the assay with Culex quinquefasciatus; in [2]; with Aedes aegypti) was 100% throughout. In assay [2], the “Kill rate in % after 24 hours” value came out at 100%. Moreover, the “activity (kill in %)” value in the assay with Ctenocephalides felis and in the assay on Lucilia cuprina larvae was 100% in each case. In the assay with Aedes aegypti, the “Kill rate in % after 24 h” value was determined as 75%. The “activity against cat fleas” value in [3] turned out to be 100%. In addition, the “Kill rate in % after 2 days” value in assay [3] (active compound concentration 0.032 g/ha) is listed as 100%.

With `Cc1ccc(N=C2C(=CSc3ccc(C)cc3)CCc3ccccc32)cc1` [Example 1-28], in assay [1], the “activity (caterpillars killed)” value came to 100%. The values for the knock-down activity (in the assay on Culex quinquefasciatus; in assay [2]; in the assay on Aedes aegypti) were 95%, 100% and 80%, respectively. Besides, the “activity (kill in %)” value in the assay with Ctenocephalides felis and in the assay on Lucilia cuprina larvae was 100% in each case. The “activity against cat fleas” value in assay [3] turned out to be 100%. In addition, in assay [4], the “activity (spider mites killed)” value was determined as 100%. The “activity (beetle larvae killed)” value in [5] is recorded as 100%.
